Test results taken from US10351546B2, “Pyridin-3-yl acetic acid derivatives as inhibitors of human immunodeficiency virus replication” (priority 2015, dated 2019).

Each molecule was assayed on NL-RLuc virus (assay: Inhibition of HIV replication (NL-RLuc luciferase reporter virus in MT-2 cells)). Conditions: Human immunodeficiency virus 1, MT2, 120 h, read-out: Activity.
Format: cell-based
In short: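 The read-out is Renilla luciferase expressed by replication-competent NL-RLuc (nef partly replaced), measured 5 days after infection of MT-2 cells grown with compound dilutions in 10% FBS RPMI. Median effect equation gives EC50 from ≥2 runs; A ≤100 nM, B 100 nM–1 uM, C >1 uM.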
`Cc1cc(F)ccc1CN1CCc2cc(-c3c(CN4[C@@H]5CC[C@H]4CN(C)C5)nc(C)c([C@H](OC(C)(C)C)C(=O)O)c3N3CCC(C)(C)CC3)ccc2C1` [Example 138, (S)-2-(tert-Butoxy)-2-(4-(4,4-dimethylpiperidin-1-yl)-5-(2-(4-fluoro-2-methylbenzyl)-1,2,3,4-tetrahydroisoquinolin-6-yl)-2-methyl-6-(((1R,5S)-3-methyl-3,8-diazabicyclo[3.2.1]octan-8-yl)methyl)pyridin-3-yl)acetic acid] was tested, and the EC50 was < 0.1 µM. In the case of `Cc1cc(F)ccc1CN1CCc2cc(-c3c(CN)nc(C)c([C@H](OC(C)(C)C)C(=O)O)c3N3CCC(C)(C)CC3)ccc2C1` [Example 139, (S)-2-(6-(Aminomethyl)-4-(4,4-dimethylpiperidin-1-yl)-5-(2-(4-fluoro-2-methylbenzyl)-1,2,3,4-tetrahydroisoquinolin-6-yl)-2-methylpyridin-3-yl)-2-(tert-butoxy)acetic acid], the EC50 is reported as < 0.1 µM. In the case of `CC(=O)NCc1nc(C)c([C@H](OC(C)(C)C)C(=O)O)c(N2CCC(C)(C)CC2)c1-c1ccc2c(c1)CCN(Cc1ccc(F)cc1C)C2` [Example 140, (S)-2-(6-(Acetamidomethyl)-4-(4,4-dimethylpiperidin-1-yl)-5-(2-(4-fluoro-2-methylbenzyl)-1,2,3,4-tetrahydroisoquinolin-6-yl)-2-methylpyridin-3-yl)-2-(tert-butoxy)acetic acid], the EC50 is reported as < 0.1 µM. `Cc1nnc(C(=O)NCc2nc(C)c([C@H](OC(C)(C)C)C(=O)O)c(N3CCC(C)(C)CC3)c2-c2ccc3c(c2)CCN(Cc2ccc(F)cc2C)C3)o1` [Example 141, (S)-2-(tert-Butoxy)-2-(4-(4,4-dimethylpiperidin-1-yl)-5-(2-(4-fluoro-2-methylbenzyl)-1,2,3,4-tetrahydroisoquinolin-6-yl)-2-methyl-6-((5-methyl-1,3,4-oxadiazole-2-carboxamido)methyl)pyridin-3-yl)acetic acid] was tested, and the EC50 was < 0.1 µM. In the case of `Cc1cc(F)ccc1CN1CCc2cc(-c3c(CNC(=O)C(=O)N(C)C)nc(C)c([C@H](OC(C)(C)C)C(=O)O)c3N3CCC(C)(C)CC3)ccc2C1` [Example 142, (S)-2-(tert-Butoxy)-2-(6-((2-(dimethylamino)-2-oxoacetamido)methyl)-4-(4,4-dimethylpiperidin-1-yl)-5-(2-(4-fluoro-2-methylbenzyl)-1,2,3,4-tetrahydroisoquinolin-6-yl)-2-methylpyridin-3-yl)acetic acid], the EC50 is reported as < 0.1 µM. In the case of `CC(=O)N(C)Cc1nc(C)c([C@H](OC(C)(C)C)C(=O)O)c(N2CCC(C)(C)CC2)c1-c1ccc2c(c1)CCN(Cc1ccc(F)cc1C)C2` [Example 143, (S)-2-(tert-Butoxy)-2-(4-(4,4-dimethylpiperidin-1-yl)-5-(2-(4-fluoro-2-methylbenzyl)-1,2,3,4-tetrahydroisoquinolin-6-yl)-2-methyl-6-((N-methylacetamido)methyl)pyridin-3-yl)acetic acid], the EC50 is reported as < 0.1 µM. For `Cc1ncn(Cc2nc(C)c([C@H](OC(C)(C)C)C(=O)O)c(N3CCC(C)(C)CC3)c2-c2ccc3c(c2)CCN(Cc2ccc(F)cc2C)C3)n1` [Example 144, (S)-2-(tert-Butoxy)-2-(4-(4,4-dimethylpiperidin-1-yl)-5-(2-(4-fluoro-2-methylbenzyl)-1,2,3,4-tetrahydroisoquinolin-6-yl)-2-methyl-6-((3-methyl-1H-1,2,4-triazol-1-yl)methyl)pyridin-3-yl)acetic acid], the EC50 was < 0.1 µM. With `Cc1cc(F)ccc1CN1CCc2cc(-c3c(Cn4ncnc4C)nc(C)c([C@H](OC(C)(C)C)C(=O)O)c3N3CCC(C)(C)CC3)ccc2C1` [Example 145, (S)-2-(tert-butoxy)-2-(4-(4,4-dimethylpiperidin-1-yl)-5-(2-(4-fluoro-2-methylbenzyl)-1,2,3,4-tetrahydroisoquinolin-6-yl)-2-methyl-6-((5-methyl-1H-1,2,4-triazol-1-yl)methyl)pyridin-3-yl)acetic acid] the EC50 was < 0.1 µM. In the case of `Cc1cc(F)ccc1CN1CCc2cc(-c3c(Cn4cnnc4C)nc(C)c([C@H](OC(C)(C)C)C(=O)O)c3N3CCC(C)(C)CC3)ccc2C1` [Example 146, (S)-2-(tert-butoxy)-2-(4-(4,4-dimethylpiperidin-1-yl)-5-(2-(4-fluoro-2-methylbenzyl)-1,2,3,4-tetrahydroisoquinolin-6-yl)-2-methyl-6-((3-methyl-4H-1,2,4-triazol-4-yl)methyl)pyridin-3-yl)acetic acid], the EC50 is reported as < 0.1 µM. For `Cc1cc(F)ccc1CN1CCc2cc(-c3c(N)nc(C)c([C@H](OC(C)(C)C)C(=O)O)c3N3CCC(C)(C)CC3)ccc2C1` [Example 147, (S)-2-(6-Amino-4-(4,4-dimethylpiperidin-1-yl)-5-(2-(4-fluoro-2-methylbenzyl)-1,2,3,4-tetrahydroisoquinolin-6-yl)-2-methylpyridin-3-yl)-2-(tert-butoxy)acetic acid], the EC50 was < 0.1 µM. `Cc1cc(N2CCc3cc(-c4c(N)nc(C)c([C@H](OC(C)(C)C)C(=O)O)c4N4CCC(C)(C)CC4)ccc3C2)ncn1` [Example 148, (S)-2-(6-Amino-4-(4,4-dimethylpiperidin-1-yl)-2-methyl-5-(2-(6-methylpyrimidin-4-yl)-1,2,3,4-tetrahydroisoquinolin-6-yl)pyridin-3-yl)-2-(tert-butoxy)acetic acid] was tested, and the EC50 was < 0.1 µM. `Cc1nc(N)c(-c2ccc3c(c2)CCN(c2ncnc4c2cnn4C)C3)c(N2CCC(C)(C)CC2)c1[C@H](OC(C)(C)C)C(=O)O` [Example 149, (S)-2-(6-Amino-4-(4,4-dimethylpiperidin-1-yl)-2-methyl-5-(2-(1-methyl-1H-pyrazolo[3,4-d]pyrimidin-4-yl)-1,2,3,4-tetrahydroisoquinolin-6-yl)pyridin-3-yl)-2-(tert-butoxy)acetic acid] was tested, and the EC50 was < 0.1 µM. For `Cc1cc(F)ccc1CN1CCc2cc(-c3c(COCC4COC4)nc(C)c([C@H](OC(C)(C)C)C(=O)O)c3N3CCC(C)(C)CC3)ccc2C1` [Example 154, (S)-2-(tert-Butoxy)-2-(4-(4,4-dimethylpiperidin-1-yl)-5-(2-(4-fluoro-2-methylbenzyl)-1,2,3,4-tetrahydroisoquinolin-6-yl)-2-methyl-6-((oxetan-3-ylmethoxy)methyl)pyridin-3-yl)acetic acid], the EC50 was < 0.1 µM. For `Cc1cc(F)ccc1CN1CCc2cc(-c3c(COC4CCOCC4)nc(C)c([C@H](OC(C)(C)C)C(=O)O)c3N3CCC(C)(C)CC3)ccc2C1` [Example 155, (S)-2-(tert-Butoxy)-2-(4-(4,4-dimethylpiperidin-1-yl)-5-(2-(4-fluoro-2-methylbenzyl)-1,2,3,4-tetrahydroisoquinolin-6-yl)-2-methyl-6-(((tetrahydro-2H-pyran-4-yl)oxy)methyl)pyridin-3-yl)acetic acid], the EC50 was < 0.1 µM. In the case of `CCOCc1nc(C)c([C@H](OC(C)(C)C)C(=O)O)c(N2CCC(C)(C)CC2)c1-c1ccc2c(c1)CCN(Cc1ccc(F)cc1C)C2` [Example 156, (S)-2-(tert-Butoxy)-2-(4-(4,4-dimethylpiperidin-1-yl)-6-(ethoxymethyl)-5-(2-(4-fluoro-2-methylbenzyl)-1,2,3,4-tetrahydroisoquinolin-6-yl)-2-methylpyridin-3-yl)acetic acid], the EC50 is reported as < 0.1 µM.

Same assay, conditions: Human immunodeficiency virus 1, MT2, 120 h, read-out: EC50 μM
`Cc1ncn(Cc2nc(C)c([C@H](OC(C)(C)C)C(=O)O)c(N3CCC(C)(C)CC3)c2-c2ccc3c(c2)CCN(Cc2ccc(F)cc2C)C3)n1` [Example 144, (S)-2-(tert-Butoxy)-2-(4-(4,4-dimethylpiperidin-1-yl)-5-(2-(4-fluoro-2-methylbenzyl)-1,2,3,4-tetrahydroisoquinolin-6-yl)-2-methyl-6-((3-methyl-1H-1,2,4-triazol-1-yl)methyl)pyridin-3-yl)acetic acid] gave an EC50 of 0.025 µM. `Cc1cc(F)ccc1CN1CCc2cc(-c3c(COC4CCOCC4)nc(C)c([C@H](OC(C)(C)C)C(=O)O)c3N3CCC(C)(C)CC3)ccc2C1` [Example 155, (S)-2-(tert-Butoxy)-2-(4-(4,4-dimethylpiperidin-1-yl)-5-(2-(4-fluoro-2-methylbenzyl)-1,2,3,4-tetrahydroisoquinolin-6-yl)-2-methyl-6-(((tetrahydro-2H-pyran-4-yl)oxy)methyl)pyridin-3-yl)acetic acid] was tested, and the EC50 was 0.001 µM.
